# The source made the active and inactive calls. The calls are words filed in the database; no cut-off is given here.
# Experiments:
# [1] = Drug recovery in liver of male Sprague-Dawley rat at 4.5 mg/kg, po administered as C14-lableled compound and assessed as radioactivity and measured at 0.25 hrs; type: ADME, organism-based; settings: in vivo
# Mus musculus [2] = test: Antifibrotic activity in C57BL/6 mouse model of CCI4-induced liver fibrosis assessed as decrease in serum TBIL level at 0.1 to 1 mg/kg, po administered once daily for 4 weeks; type: functional, organism-based; settings: dose 0.1-1 mg/kg
# [3] = Toxicity in po dosed Sprague-Dawley rat assessed as maximum tolerated dose; type: organism-based; settings: in vivo
# [4] = Drug recovery in ileum of male Sprague-Dawley rat at 4.5 mg/kg, po administered as C14-lableled compound and assessed as radioactivity and measured at 6 hrs; type: ADME, organism-based; settings: in vivo
# [5] = biological target: T1, G-protein coupled bile acid receptor 1 (Homo sapiens, UniProt Q8TDU6); test: Agonist activity in human GPBAR1 assessed as increase in intracellular cAMP level; type: functional, cell-based
# T1 sequence (Q8TDU6 whole entry): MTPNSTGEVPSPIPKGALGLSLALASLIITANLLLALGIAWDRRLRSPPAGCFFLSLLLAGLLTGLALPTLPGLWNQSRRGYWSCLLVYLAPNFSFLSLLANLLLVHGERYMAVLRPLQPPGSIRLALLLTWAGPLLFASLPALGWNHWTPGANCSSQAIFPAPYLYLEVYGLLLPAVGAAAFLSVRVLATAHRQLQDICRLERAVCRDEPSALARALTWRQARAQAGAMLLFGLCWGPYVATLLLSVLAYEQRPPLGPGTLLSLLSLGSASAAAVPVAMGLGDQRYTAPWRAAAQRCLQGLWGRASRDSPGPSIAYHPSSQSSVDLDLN
# [6] = Drug recovery in spleen of male Sprague-Dawley rat at 4.5 mg/kg, po administered as C14-lableled compound and assessed as radioactivity and measured at 1 hr; type: ADME, organism-based; settings: in vivo
# [7] = biological target: T2, Bile acid receptor (Rattus norvegicus) (UniProt Q62735); test: In vivo activation of FXR in male Sprague-Dawley rat assessed as fold increase in ileum FGF15 level at 5 mg/kg, po administered as single dose measured at 1 hr by RT-qPCR assay; type: functional, organism-based
# T2 sequence (whole entry): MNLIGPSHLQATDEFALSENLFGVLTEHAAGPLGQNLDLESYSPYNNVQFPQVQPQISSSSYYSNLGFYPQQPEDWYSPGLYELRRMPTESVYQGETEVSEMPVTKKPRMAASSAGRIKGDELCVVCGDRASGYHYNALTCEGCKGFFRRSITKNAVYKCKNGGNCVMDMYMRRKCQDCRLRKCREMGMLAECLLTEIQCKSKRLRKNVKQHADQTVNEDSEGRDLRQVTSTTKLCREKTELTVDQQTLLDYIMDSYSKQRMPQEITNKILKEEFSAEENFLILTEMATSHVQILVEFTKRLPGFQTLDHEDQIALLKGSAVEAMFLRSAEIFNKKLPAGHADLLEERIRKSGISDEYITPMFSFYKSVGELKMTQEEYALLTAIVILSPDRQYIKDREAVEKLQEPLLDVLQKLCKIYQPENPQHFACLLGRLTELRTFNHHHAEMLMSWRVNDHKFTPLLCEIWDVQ
# [8] = biological target: T3, Peroxisome proliferator-activated receptor alpha (Homo sapiens, UniProt Q07869); test: Agonist activity at PPARalpha (unknown origin)
# T3 sequence (Q07869 whole entry): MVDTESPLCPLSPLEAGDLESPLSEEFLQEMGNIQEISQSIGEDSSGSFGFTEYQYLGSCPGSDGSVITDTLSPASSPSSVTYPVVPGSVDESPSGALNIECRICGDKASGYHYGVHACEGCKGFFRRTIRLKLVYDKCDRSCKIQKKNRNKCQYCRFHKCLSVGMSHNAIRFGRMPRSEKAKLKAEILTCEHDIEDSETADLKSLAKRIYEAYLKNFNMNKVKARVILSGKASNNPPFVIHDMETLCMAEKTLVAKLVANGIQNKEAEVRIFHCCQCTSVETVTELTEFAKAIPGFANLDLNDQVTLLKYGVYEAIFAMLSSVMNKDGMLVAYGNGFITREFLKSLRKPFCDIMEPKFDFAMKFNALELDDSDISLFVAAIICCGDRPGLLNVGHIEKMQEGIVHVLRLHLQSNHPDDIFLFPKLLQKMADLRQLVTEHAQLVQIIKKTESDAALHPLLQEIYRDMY
# [9] = Drug recovery in stomach of male Sprague-Dawley rat at 4.5 mg/kg, po administered as C14-lableled compound and assessed as radioactivity and measured at 0.25 hrs; type: ADME, organism-based; settings: in vivo
# [10] = Drug metabolism in feces of Sprague-Dawley rat assessed as production of toxic metabolites at 4.5 mg/kg, po administered as C14-lableled compound with single dose; type: ADME, organism-based; settings: in vivo
# Mus musculus [11] = test: Antifibrotic activity in C57BL/6 mouse model of CCI4-induced liver fibrosis assessed as decrease in serum ALT level at 0.1 to 1 mg/kg, po administered once daily for 4 weeks; type: functional, organism-based; settings: dose 0.1-1 mg/kg
# [12] = Drug recovery in skin of male Sprague-Dawley rat at 4.5 mg/kg, po administered as C14-lableled compound and assessed as radioactivity and measured at 6 hrs; type: ADME, organism-based, Skin of body; settings: in vivo, BLD = below limit of detection
# Mus musculus [13] = test: Anti-NASH activity against high fat (HF) diet-induced nonalcoholic steatohepatitis in leptin-deficient ob/ob mouse model assessed as reduction in liver cholesterol level at 3 mg/kg, po administered once daily from week 5 to 10; type: functional, organism-based
# [14] = Drug recovery in brain of male Sprague-Dawley rat at 4.5 mg/kg, po administered as C14-lableled compound and assessed as radioactivity and measured at 1 hr; type: ADME, organism-based; settings: in vivo
# [15] = biological target: T2, Bile acid receptor (Rattus norvegicus); test: In vivo activation of FXR in male Sprague-Dawley rat assessed as fold increase in liver BSEP level at 5 mg/kg, po administered as single dose measured at 1 hr by RT-qPCR assay; type: functional, organism-based
# [16] = Clearance in male Beagle dog at 1 mg/kg, iv measured by LC-MS/MS analysis; type: ADME, organism-based, Canis lupus familiaris; settings: in vivo
# [17] = Drug recovery in lung of male Sprague-Dawley rat at 4.5 mg/kg, po administered as C14-lableled compound and assessed as radioactivity and measured at 0.25 hrs; type: ADME, organism-based; settings: in vivo
# Estrogen receptor beta = Estrogen receptor beta (Homo sapiens, UniProt Q92731); test: Agonist activity at estrogen receptor beta (unknown origin)
# Sequence of Estrogen receptor beta (Q92731 whole entry): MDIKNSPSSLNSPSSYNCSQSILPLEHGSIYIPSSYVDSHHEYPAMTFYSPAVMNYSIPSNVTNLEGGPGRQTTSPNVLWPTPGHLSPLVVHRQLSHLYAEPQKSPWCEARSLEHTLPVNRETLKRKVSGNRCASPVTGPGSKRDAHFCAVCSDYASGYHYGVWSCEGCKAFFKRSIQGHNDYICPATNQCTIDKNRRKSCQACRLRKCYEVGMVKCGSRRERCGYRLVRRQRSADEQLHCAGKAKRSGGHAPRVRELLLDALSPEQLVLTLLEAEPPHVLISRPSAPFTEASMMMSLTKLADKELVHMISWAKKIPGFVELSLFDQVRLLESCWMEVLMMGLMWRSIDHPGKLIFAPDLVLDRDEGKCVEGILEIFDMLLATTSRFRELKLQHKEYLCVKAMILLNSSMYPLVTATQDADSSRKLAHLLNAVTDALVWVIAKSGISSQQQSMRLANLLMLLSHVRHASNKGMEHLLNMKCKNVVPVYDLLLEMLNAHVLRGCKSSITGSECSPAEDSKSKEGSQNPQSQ
compound,measurement,setting,value
O=C(O)c1ccc2c(c1)Oc1ccc(OCc3c(-c4c(Cl)cccc4Cl)noc3C3CC3)nc1C1(CC1)C2,Drug recovery,[1],5308 ngequiv/g
same,Activity,Mus musculus [2],Active
same,MTD,[3],2000 mg/kg
same,Drug recovery,[4],5620 ngequiv/g
same,EC50,[5],> 10 µM
same,Drug recovery,[6],104 ngequiv/g
same,fold change (FC),[7],24
same,EC50,[8],> 10 µM
same,Drug recovery,[9],3213 ngequiv/g
same,Drug metabolism,[10],Metabolite_Notdetected
same,Activity,Mus musculus [11],Active
same,Drug recovery,[12],Bld
same,Activity,Mus musculus [13],Active
same,Drug recovery,[14],38.2 ngequiv/g
same,fold change (FC),[15],2
same,clearance,[16],1.1 L/h/kg
same,Drug recovery,[17],868 ngequiv/g
same,EC50,Estrogen receptor beta,> 10 µM

# — ChEMBL document CHEMBL5154690, “Discovery of a tricyclic farnesoid X receptor agonist HEC96719, a clinical candidate for treatment of non-alcoholic steatohepatitis” (Eur J Med Chem, 2022)
